Molecules are shown by their SMILES.

The target in this assay is Factor D (Homo sapiens (Human), UniProt P00746). The experiment in a line: biochemical. The format is biochemical. The following applies: read-out: IC50.
Sequence of Factor D (P00746 26-253): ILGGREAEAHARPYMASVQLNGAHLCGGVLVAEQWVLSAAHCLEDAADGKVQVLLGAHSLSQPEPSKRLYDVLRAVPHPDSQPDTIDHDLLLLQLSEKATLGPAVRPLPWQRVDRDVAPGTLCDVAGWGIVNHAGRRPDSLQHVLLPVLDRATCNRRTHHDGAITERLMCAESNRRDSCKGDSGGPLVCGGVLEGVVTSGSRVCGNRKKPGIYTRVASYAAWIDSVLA
Usually IC50 stands for the point on the concentration scale where inhibition reaches its midpoint. On to `Cc1cc2c(cn1)c(C(N)=O)nn2CC(=O)N1[C@@H]2C[C@@H]2C[C@H]1C(=O)NCc1cccc(Cl)c1F` [Example 653, 1-{2-[(1R,3S,5R)-3-(3-Chloro-2-fluoro-benzylcarbamoyl)-2-aza-bicyclo[3.1.0]hex-2-yl]-2-oxo-ethyl}-6-methyl-1H-pyrazolo[4,3-c]pyridine-3-carboxylic acid amide], for which the half-inhibitory concentration (IC50) came to 47 nM.

In the case of `COC(=O)C(CCC(F)(F)F)NC(=O)[C@@H]1C[C@H]2C[C@H]2N1C(=O)Cn1nc(C(C)=O)c2cccnc21` (stereo partly drawn) [Example 767, 2-({(1R,3S,5R)-2-[2-(3-Acetyl-pyrazolo[3,4-b]pyridin-1-yl)-acetyl]-2-aza-bicyclo[3.1.0]hexane-3-carbonyl}-amino)-5,5,5-trifluoro-pentanoic acid methyl ester], the half-maximal inhibitory concentration (IC50) was found to be 346 nM.

For the molecule `CO[C@H]1[C@@H](C(=O)Nc2cccc(Br)c2F)N(C(=O)Cn2nc(C(N)=O)c3ccccc32)C[C@@H]1F` [Example 755, 1-{2-[(2S,3S,4S)-2-(3-Bromo-2-fluoro-phenylcarbamoyl)-4-fluoro-3-methoxy-pyrrolidin-1-yl]-2-oxo-ethyl}-1H-indazole-3-carboxylic acid amide], the IC50 is 17 nM.

For `NC(=O)n1cc(NC(=O)N2CCS[C@H]2C(=O)NCc2cnc(Cl)s2)c2ccccc21` [Example 263, (S)-Thiazolidine-2,3-dicarboxylic acid 3-[(1-carbamoyl-1H-indol-3-yl)-amide] 2-[(2-chloro-thiazol-5-ylmethyl)-amide]], the 50% inhibitory concentration (IC50) was 400 nM.

Take `Cc1nccc2c(C(N)=O)nn(CC(=O)N3[C@@H]4C[C@@H]4C[C@H]3C(=O)Nc3cccc(Br)n3)c12` [Example 747, 1-{2-[(1R,3S,5R)-3-(6-Bromo-pyridin-2-ylcarbamoyl)-2-aza-bicyclo[3.1.0]hex-2-yl]-2-oxo-ethyl}-7-methyl-1H-pyrazolo [3,4-c]pyridine-3-carboxylic acid amide]: the IC50 stood at 13 nM.

As for `CO[C@H]1[C@@H](C(=O)NCc2cccc(Cl)c2F)N(C(=O)Cn2nc(C(C)=O)c3ccc(C(=O)O)cc32)C[C@@H]1F` [Example 640, 3-Acetyl-1-{2-[(2S,3S,4S)-2-(3-chloro-2-fluoro-benzylcarbamoyl)-4-fluoro-3-methoxy-pyrrolidin-1-yl]-2-oxo-ethyl}-1H-indazole-6-carboxylic acid], the IC50 stood at 8 nM.

Take `NC(=O)n1cc(NC(=O)N2C[C@H](F)C[C@H]2C(=O)N[C@H](c2cccc(Cl)c2)C(F)(F)F)c2ccccc21` [Example 319, (2S,4R)-4-Fluoro-pyrrolidine-1,2-dicarboxylic acid 1-[(1-carbamoyl-1H-indol-3-yl)-amide] 2-{[(R)-1-(3-chloro-phenyl)-2,2,2-trifluoro-ethyl]-amide}]: the IC50 was 548 nM.

With `NC(=O)n1cc(CC(=O)N2C[C@H]3C[C@H]3[C@H]2C(=O)N[C@H](CO)c2cccc(Cl)c2F)c2ccccc21` [Example 463, 3-(2-{(1R,2S,5S)-2-[(S)-1-(3-Chloro-2-fluoro-phenyl)-2-hydroxy-ethylcarbamoyl]-3-azabicyclo[3.1.0]hex-3-yl}-2-oxo-ethyl)-indole-1-carboxylic acid amide], the 50% inhibitory concentration (IC50) came out at 3110 nM.

On to `NC[C@@]1(F)C[C@@H](C(=O)N[C@H](CF)c2cccc(Br)c2)N(C(=O)Nc2cn(C(N)=O)c3ccccc23)C1` [Example 413, (2S,4S)-4-Aminomethyl-4-fluoro-pyrrolidine-1,2-dicarboxylic acid 2-{[(S)-1-(3-bromo-phenyl)-2-fluoro-ethyl]-amide}1-[(1-carbamoyl-1H-indol-3-yl)-amide]], for which the IC50 came out at 101 nM.

`NC(=O)n1cc(NC(=O)N2CC[C@H]2C(=O)Nc2cccc(OC(F)(F)F)c2)c2ccccc21` [Example 299, (S)-Azetidine-1,2-dicarboxylic acid 1-[(1-carbamoyl-1H-indol-3-yl)-amide] 2-[(3-trifluoromethoxy-phenyl)-amide]]: the 50% inhibitory concentration (IC50) turned out to be 1800 nM.

As to `CO[C@H]1[C@@H](C(=O)NC2(c3cccc(Cl)c3)CC2)N(C(=O)Cn2cc(C(C)=O)c3ccccc32)C[C@@H]1F` [Example 572, (2S,3S,4S)-1-[2-(3-Acetyl-indol-1-yl)-acetyl]-4-fluoro-3-methoxy-pyrrolidine-2-carboxylic acid [1-(3-chloro-phenyl)-cyclopropyl]-amide], the half-inhibitory concentration (IC50) was 284 nM.

As for `CC(=O)c1cn(CC(=O)N2[C@@H]3C[C@@H]3C[C@H]2C(=O)NCc2cccc(Cl)c2F)c2cnccc12` [Example 550, (1R,3S,5R)-2-[2-(3-Acetyl-pyrrolo[2,3-c]pyridin-1-yl)-acetyl]-2-aza-bicyclo[3.1.0]hexane-3-carboxylic acid 3-chloro-2-fluorobenzylamide], the concentration for half-maximal inhibition (IC50) turned out to be 33 nM.

On to `COC(=O)c1cccc(NC(=O)[C@@H]2CCCN2C(=O)Nc2cn(C(N)=O)c3ccccc23)c1` [Example 219, 3-{[(S)-1-(1-Carbamoyl-1H-indol-3-ylcarbamoyl)-pyrrolidine-2-carbonyl]-amino}-benzoic acid methyl ester], for which the IC50 worked out at 1850 nM.

For the molecule `NC(=O)n1cc(NC(=O)N2C[C@H](F)C[C@H]2C(=O)NCc2cncc(F)c2)c2ccccc21` [Example 215, (2S,4R)-4-Fluoro-pyrrolidine-1,2-dicarboxylic acid 1-[(1-carbamoyl-1H-indol-3-yl)-amide] 2-[(5-fluoro-pyridin-3-ylmethyl)-amide]], the IC50 was 386 nM.

For `CC(=O)c1cn(CC(=O)N2[C@@H]3C[C@@H]3C[C@H]2C(=O)Nc2cccc(Br)n2)c2nnccc12` [Example 752, (1R,3S,5R)-2-[2-(5-Acetyl-pyrrolo[2,3-c]pyridazin-7-yl)-acetyl]-2-aza-bicyclo[3.1.0] hexane-3-carboxylic acid (6-bromo-pyridin-2-yl)-amide], the IC50 worked out at 95 nM.

Turning to `CC(=O)c1cn(CC(=O)N2C[C@H](F)C[C@H]2C(=O)NCc2cccc(Cl)c2F)c2ccc(OC(F)(F)F)cc12` [Example 539, (2S,4R)-1-[2-(3-Acetyl-5-trifluoromethoxy-indol-1-yl)-acetyl]-4-fluoro-pyrrolidine-2-carboxylic acid 3-chloro-2-fluoro-benzylamide], the 50% inhibitory concentration (IC50) came to 31 nM.

With `CC(=O)c1cn(CC(=O)N2[C@@H]3C[C@@H]3C[C@H]2C(=O)Nc2cccc(Br)n2)c2ncccc12` [Example 750, (1R,3S,5R)-2-[2-(3-Acetyl-pyrrolo[2,3-b]pyridin-1-yl)-acetyl]-2-aza-bicyclo[3.1.0] hexane-3-carboxylic acid (6-bromo-pyridin-2-yl)-amide], the half-inhibitory concentration (IC50) is 34 nM.

As for `NC(=O)n1cc(NC(=O)N2C[C@H](F)C[C@H]2C(=O)Nc2cncc(Cl)c2)c2ccccc21` [Example 193, (2S,4R)-4-Fluoro-pyrrolidine-1,2-dicarboxylic acid 1-[(1-carbamoyl-1H-indol-3-yl)-amide] 2-[(5-chloro-pyridin-3-yl)-amide]], the 50% inhibitory concentration (IC50) was determined as 160 nM.

Turning to `NC(=O)n1cc(NC(=O)N2[C@@H]3C[C@@H]3C[C@H]2C(=O)Nc2cc(Br)cc(-c3nnn[nH]3)c2)c2ccccc21` [Example 344, (1R,3S,5R)-2-Aza-bicyclo[3.1.0]hexane-2,3-dicarboxylic acid 3-{[3-bromo-5-(1H-tetrazol-5-yl)-phenyl]-amide}2-[(1-carbamoyl-1H-indol-3-yl)-amide]], the IC50 came to 68 nM.

On to `CCc1cc2c(C(N)=O)nn(CC(=O)N3C[C@H](F)[C@@H](OC)[C@H]3C(=O)NCc3cccc(Cl)c3F)c2cn1` [Example 697, 1-{2-[(2S,3S,4S)-2-(3-Chloro-2-fluoro-benzylcarbamoyl)-4-fluoro-3-methoxy-pyrrolidin-1-yl]-2-oxo-ethyl}-5-ethyl-1H-pyrazolo[3,4-c]pyridine-3-carboxylic acid amide], for which the IC50 stood at 3 nM.

In the case of `CC(C)(C)c1cccc(NC(=O)[C@@H]2CC3CC3N2C(=O)Nc2cn(C(N)=O)c3ccccc23)c1` (stereo partly drawn) [Example 330, (1R,3S,5R)-2-Aza-bicyclo[3.1.0]hexane-2,3-dicarboxylic acid 3-[(3-tert-butyl-phenyl)-amide] 2-[(1-carbamoyl-1H-indol-3-yl)-amide]], the concentration for half-maximal inhibition (IC50) worked out at 250 nM.

Take `CC(=O)c1nn(CC(=O)N2[C@@H]3C[C@@H]3C[C@H]2C(=O)NC2(c3cccc(Cl)c3F)COC2)c2ncccc12` [Example 633, (1R,3S,5R)-2-[2-(3-Acetyl-pyrazolo[3,4-b]pyridin-1-yl)-acetyl]-2-aza-bicyclo [3.1.0]hexane-3-carboxylic acid [3-(3-chloro-2-fluoro-phenyl)-oxetan-3-yl]-amide]: the IC50 is 55 nM.

Take `COc1cc2c(C(C)=O)nn(CC(=O)N3[C@@H]4C[C@@H]4C[C@H]3C(=O)NCc3cccc(Cl)c3F)c2cc1OC` [Example 647, (1R,3S,5R)-2-[2-(3-Acetyl-5,6-dimethoxy-indazol-1-yl)-acetyl]-2-aza-bicyclo [3.1.0]hexane-3-carboxylic acid 3-chloro-2-fluoro-benzylamide]: the half-inhibitory concentration (IC50) came to 16 nM.

`Cc1nccc2c(C(N)=O)nn(CC(=O)N3[C@@H]4C[C@@H]4C[C@H]3C(=O)Nc3cccc(OC(F)(F)F)c3F)c12` [Example 716, 1-{2-[(1R,3S,5R)-3-(2-Fluoro-3-trifluoromethoxy-phenylcarbamoyl)-2-aza-bicyclo[3.1.0]hex-2-yl]-2-oxo-ethyl}-7-methyl-1H-pyrazolo[3,4-c]pyridine-3-carboxylic acid amide]: the IC50 was found to be 46 nM.

For the molecule `CC(=O)c1cn(CC(=O)N2C[C@](C)(F)C[C@H]2C(=O)NCc2cccc(Cl)c2F)c2ncccc12` [Example 530, (2S,4R)-1-[2-(3-Acetyl-pyrrolo[2,3-b]pyridin-1-yl)-acetyl]-4-fluoro-4-methyl-pyrrolidine-2-carboxylic acid 3-chloro-2-fluoro-benzylamide], the IC50 was determined as 72 nM.

Consider `NC(=O)n1cc(NC(=O)N2CCC3C[C@@]32C(=O)Nc2cccc(OC(F)(F)F)c2)c2ccccc21` (stereo partly drawn) [Example 307, (1S,5R)-2-Aza-bicyclo[3.1.0]hexane-1,2-dicarboxylic acid 2-[(1-carbamoyl-1H-indol-3-yl)-amide] 1-[(3-trifluoromethoxy-phenyl)-amide]], for which the concentration for half-maximal inhibition (IC50) was found to be 13300 nM.

For the molecule `CC(=O)c1cn(CC(=O)N2[C@@H]3C[C@@H]3C[C@H]2C(=O)NCc2cccc(Cl)c2F)c2cc(C(=N)N(C)C)ccc12` [Example 616, (1R,3S,5R)-2-{2-[3-Acetyl-6-(N,N-dimethyl-carbamimidoyl)-indol-1-yl]-acetyl}-2-aza-bicyclo[3.1.0]hexane-3-carboxylic acid 3-chloro-2-fluoro-benzylamide], the IC50 is 123 nM.

The values are drawn from patent US9085555B2, “Complement pathway modulators and uses thereof” (priority 2011, dated 2015).
